Source: patent US11999727B2 (Tango Therapeutics, Inc., priority 2020, dated 2024)
Read-outs that look alike come from different tables or passages of the source. Values belong to the compound of their own block, whether it stands above or below them.

Experiments:
Assay type in all cases: cell-based
[1] = system: HAP1 MTAP-deleted cell line; experiment: SDMA in-cell western assay, HAP1 MTAP-deleted; details: for IC50: Homo sapiens; for MTAP intact/deleted ratio: IC50 ratio HAP1 MTAP-intact / HAP1 MTAP-deleted, SDMA in-cell western
From the text: (§1) Table 1 also indicates IC50 values in an MTAP-isogenic cell line pair for exemplary compounds in an SDMA in-cell western assay (columns 7-8). HAP1 MTAP-intact is a cell line in which endogenous levels of MTAP are expressed, and HAP1 MTAP-deleted is an MTAP-null cell line.

[2] = system: HAP1 MTAP-intact cell line; experiment: SDMA in-cell western assay, HAP1 MTAP-intact; details: Homo sapiens
From the text: as §1

[3] = system: HAP1 MTAP-deleted cell line; experiment: Viability assay, MTAP-deleted cell line; details: Homo sapiens
From the text: Table 1 additionally indicates IC50 values in a viability assay for the MTAP-deleted cell line (column 10), indicating the effect of treatment with compound on cell survival.

[4] = HAP1, read-out: HAP1 MTAP deleted IC50
[5] = HAP1, read-out: MTAP HAP1 intact IC50
[6] = HAP1, read-out: HAP1 MTAP deleted viability
[7] = HAP1, SDMA in-cell western, HAP1 MTAP-deleted, read-out: HAP 1 MTAP deleted IC50
[8] = HAP1, SDMA in-cell western, HAP1 MTAP-intact, read-out: MTAP HAP1 intact IC50
[9] = HAP1, viability IC50, MTAP-deleted cell line, read-out: HAP1 MTAP deleted viability

IC50 [1, 4]: < 100 nM
IC50 [2, 5]: < 100 nM
SMILES: Cc1cc(NC(=O)C(=O)N2C[C@H](C)CC[C@H]2c2ccc3sc(CN(C)C)nc3c2)cnc1N (racemic) [Compound 1106, N-(6-amino-5-methylpyridin-3-yl)-2-(2-(2-((dimethylamino)methyl)benzo[d]thiazol-5-yl)-5-methylpiperidin-1-yl)-2-oxoacetamide]
IC50 [3, 6]: < 1000 nM

IC50 [1, 7]: > 1000 nM
IC50 [2, 8]: > 1000 nM
SMILES: C[C@H]1CC[C@H](c2ccc(N)cn2)N(C(=O)C(=O)Nc2cncc(C(N)=O)c2)C1 (relative stereo) [Compound 594, 5-[[2-[(2R,5S)-2-(5-amino-2-pyridyl)-5-methyl-1-piperidyl]-2-oxo-acetyl]amino]pyridine-3-carboxamide]
MTAP intact/deleted ratio [1]: B (an IC50 ratio greater than or equal to 3 fold but lower than 10 fold)
IC50 [3, 9]: > 10000 nM

IC50 [1, 7]: > 1000 nM
IC50 [2, 8]: > 1000 nM
SMILES: COc1ncc(NC(=O)C(=O)N2C[C@H](C)CC[C@H]2c2ccc3sccc3c2)cc1C(N)=O (relative stereo) [Compound 633, 5-[[2-[(2S,5R)-2-(benzothiophen-5-yl)-5-methyl-1-piperidyl]-2-oxo-acetyl]amino]-2-methoxy-pyridine-3-carboxamide]
MTAP intact/deleted ratio [1]: C (an IC50 ratio of less than 3 fold)
IC50 [3, 9]: > 10000 nM

IC50 [1, 7]: < 100 nM
IC50 [2, 8]: > 1000 nM
SMILES: Cc1cc([C@H]2CC[C@H](C)CN2C(=O)C(=O)Nc2cncc(C(N)=O)c2)cc2cn[nH]c12 (relative stereo) [Compound 638, 5-[[2-[(2R,5S)-5-methyl-2-(7-methyl-1H-indazol-5-yl)-1-piperidyl]-2-oxo-acetyl]amino]pyridine-3-carboxamide]
MTAP intact/deleted ratio [1]: A (an IC50 ratio greater than or equal to 10 fold)
IC50 [3, 9]: 1000 to 10000 nM

SMILES: Cc1cncc(NC(=O)C(=O)N2C[C@@H](C)CC[C@@H]2c2ccccc2)c1 (single isomer, unassigned) [Compound 2]
IC50 [1, 4]: > 1000 nM
IC50 [2, 5]: > 1000 nM
IC50 [3, 6]: > 10000 nM

SMILES: Cc1cncc(NC(=O)C(=O)N2[C@@H](c3ccccc3)CC[C@H](C)[C@H]2C)c1 (single isomer, unassigned) [Compound 32]
IC50 [1, 4]: > 1000 nM
IC50 [2, 5]: > 1000 nM
IC50 [3, 6]: > 10000 nM

IC50 [1, 4]: < 100 nM
IC50 [2, 5]: 100 to 1000 nM
SMILES: Cc1cc(NC(=O)C(=O)N2C[C@@H](C)CC[C@@H]2c2ccccc2)cnc1N (single isomer, unassigned) [Compound 33]
IC50 [3, 6]: 1000 to 10000 nM

SMILES: Cc1cncc(NC(=O)C(=O)N2[C@@H](c3ccccc3)CC[C@@H](C)[C@H]2C)c1 (single isomer, unassigned) [Compound 35]
IC50 [1, 4]: > 1000 nM
IC50 [2, 5]: > 1000 nM
IC50 [3, 6]: > 10000 nM

IC50 [1, 4]: 100 to 1000 nM
IC50 [2, 5]: > 1000 nM
SMILES: Cc1cc(NC(=O)C(=O)N2C[C@H](C)CC[C@@H]2c2ccccc2)cnc1N (single isomer, unassigned) [Compound 37]
IC50 [3, 6]: 1000 to 10000 nM

SMILES: Cc1cncc(NC(=O)C(=O)N2[C@H](c3ccccc3)CC[C@@H](C)[C@@H]2C)c1 (single isomer, unassigned) [Compound 39]
IC50 [1, 4]: > 1000 nM
IC50 [2, 5]: > 1000 nM
IC50 [3, 6]: > 10000 nM

IC50 [1, 4]: 100 to 1000 nM
IC50 [2, 5]: > 1000 nM
SMILES: C[C@H]1CC[C@@H](c2ccccc2)N(C(=O)C(=O)Nc2cncc(C(N)=O)c2)C1 (single isomer, unassigned) [Compound 82]
IC50 [3, 6]: > 10000 nM

IC50 [1, 4]: < 100 nM
IC50 [2, 5]: > 1000 nM
SMILES: C[C@H]1CC[C@H](c2ccccc2)N(C(=O)C(=O)Nc2cncc(C(N)=O)c2)C1 (single isomer, unassigned) [Compound 88]
IC50 [3, 6]: 1000 to 10000 nM

SMILES: Cc1cc(NC(=O)C(=O)N2CCCC[C@H]2c2ccccc2)cnc1C (single isomer, unassigned) [Compound 188]
IC50 [1, 4]: > 1000 nM
IC50 [2, 5]: > 1000 nM
IC50 [3, 6]: > 10000 nM

SMILES: Cc1cc(NC(=O)C(=O)N2CCCC[C@@H]2c2ccccc2)cnc1C (single isomer, unassigned) [Compound 189]
IC50 [1, 4]: > 1000 nM
IC50 [2, 5]: > 1000 nM
IC50 [3, 6]: > 10000 nM

IC50 [1, 4]: > 1000 nM
IC50 [2, 5]: > 1000 nM
SMILES: Cc1cc(NC(=O)C(=O)N2C[C@H](C)CC[C@H]2c2ccc(F)cc2)cnc1N (single isomer, unassigned) [Compound 233]
IC50 [3, 6]: > 10000 nM

IC50 [1, 4]: < 100 nM
IC50 [2, 5]: 100 to 1000 nM
SMILES: Cc1cc(NC(=O)C(=O)N2C[C@@H](C)CC[C@@H]2c2ccc(F)cc2)cnc1N (single isomer, unassigned) [Compound 242]
IC50 [3, 6]: < 1000 nM

SMILES: C[C@H]1CC[C@H](c2ccc(O)cc2)N(C(=O)C(=O)Nc2cncc(C(N)=O)c2)C1 (single isomer, unassigned) [Compound 287]
IC50 [1, 4]: < 100 nM
IC50 [2, 5]: 100 to 1000 nM
IC50 [3, 6]: < 1000 nM

SMILES: C[C@@H]1CC[C@@H](c2ccc(O)cc2)N(C(=O)C(=O)Nc2cncc(C(N)=O)c2)C1 (single isomer, unassigned) [Compound 297]
IC50 [1, 4]: > 1000 nM
IC50 [2, 5]: > 1000 nM
IC50 [3, 6]: > 10000 nM

SMILES: C[C@H]1CC[C@H](c2ccc3c(c2)CC(=O)N3)N(C(=O)C(=O)Nc2cncc(C(N)=O)c2)C1 (single isomer, unassigned) [Compound 319]
IC50 [1, 4]: < 100 nM
IC50 [2, 5]: 100 to 1000 nM
IC50 [3, 6]: 1000 to 10000 nM

SMILES: C[C@@H]1CC[C@@H](c2ccc3[nH]cnc3c2)N(C(=O)C(=O)Nc2cncc(C(N)=O)c2)C1 (single isomer, unassigned) [Compound 344]
IC50 [1, 4]: 100 to 1000 nM
IC50 [2, 5]: > 1000 nM
IC50 [3, 6]: 1000 to 10000 nM

SMILES: C[C@@H]1CC[C@@H](c2ccc(C(F)F)cc2)N(C(=O)C(=O)Nc2cncc(C(N)=O)c2)C1 (single isomer, unassigned) [Compound 358]
IC50 [1, 4]: > 1000 nM
IC50 [2, 5]: > 1000 nM
IC50 [3, 6]: > 10000 nM

SMILES: C[C@H]1CC[C@H](c2ccc(C(F)F)cc2)N(C(=O)C(=O)Nc2cncc(C(N)=O)c2)C1 (single isomer, unassigned) [Compound 359]
IC50 [1, 4]: < 100 nM
IC50 [2, 5]: > 1000 nM
IC50 [3, 6]: 1000 to 10000 nM

SMILES: C[C@H]1CC[C@H](c2ccc3[nH]ncc3c2)N(C(=O)C(=O)Nc2cncc(C(N)=O)c2)C1 (single isomer, unassigned) [Compound 360]
IC50 [1, 4]: > 1000 nM
IC50 [2, 5]: > 1000 nM
IC50 [3, 6]: > 10000 nM

SMILES: C[C@@H]1CC[C@@H](c2ccc3[nH]ncc3c2)N(C(=O)C(=O)Nc2cncc(C(N)=O)c2)C1 (single isomer, unassigned) [Compound 361]
IC50 [1, 4]: < 100 nM
IC50 [2, 5]: 100 to 1000 nM
IC50 [3, 6]: < 1000 nM

SMILES: Cc1cc(NC(=O)C(=O)N2C[C@H](C)CC[C@H]2c2ccc3[nH]ncc3c2)cnc1N (single isomer, unassigned) [Compound 363]
IC50 [1, 4]: < 100 nM
IC50 [2, 5]: < 100 nM
IC50 [3, 6]: < 1000 nM

SMILES: Cc1cc(NC(=O)C(=O)N2C[C@@H](C)CC[C@@H]2c2ccc3[nH]ncc3c2)cnc1N (single isomer, unassigned) [Compound 364]
IC50 [1, 4]: > 1000 nM
IC50 [2, 5]: > 1000 nM
IC50 [3, 6]: > 10000 nM

SMILES: C[C@@H]1CC[C@@H](c2ccc3[nH]ccc3c2)N(C(=O)C(=O)Nc2cncc(C(N)=O)c2)C1 (single isomer, unassigned) [Compound 372]
IC50 [1, 4]: > 1000 nM
IC50 [2, 5]: > 1000 nM
IC50 [3, 6]: > 10000 nM

SMILES: Cc1cc(NC(=O)C(=O)N2C[C@H](C)CC[C@H]2c2ccc3[nH]ccc3c2)cnc1N (single isomer, unassigned) [Compound 385]
IC50 [1, 4]: < 100 nM
IC50 [2, 5]: 100 to 1000 nM
IC50 [3, 6]: < 1000 nM

SMILES: Cc1cc(NC(=O)C(=O)N2C[C@@H](C)CC[C@@H]2c2ccc3[nH]ccc3c2)cnc1N (single isomer, unassigned) [Compound 388]
IC50 [1, 4]: > 1000 nM
IC50 [2, 5]: > 1000 nM
IC50 [3, 6]: > 10000 nM

SMILES: Cc1cc(NC(=O)C(=O)N2C[C@@H](C)CC[C@H]2c2ccc3[nH]ncc3c2)cnc1N (single isomer, unassigned) [Compound 392]
IC50 [1, 4]: < 100 nM
IC50 [2, 5]: > 1000 nM
IC50 [3, 6]: 1000 to 10000 nM

SMILES: Cc1cc(NC(=O)C(=O)N2C[C@@H](C)CC[C@@H]2c2ccc(O)cc2)cnc1N (single isomer, unassigned) [Compound 396]
IC50 [1, 4]: > 1000 nM
IC50 [2, 5]: > 1000 nM
IC50 [3, 6]: > 10000 nM

SMILES: Cc1cc(NC(=O)C(=O)N2C[C@H](C)CC[C@H]2c2ccc(O)cc2)cnc1N (single isomer, unassigned) [Compound 397]
IC50 [1, 4]: < 100 nM
IC50 [2, 5]: 100 to 1000 nM
IC50 [3, 6]: < 1000 nM

SMILES: Cc1cc(NC(=O)C(=O)N2C[C@@H](C)CC[C@@H]2c2ccc3[nH]cnc3c2)cnc1N (single isomer, unassigned) [Compound 408]
IC50 [1, 4]: < 100 nM
IC50 [2, 5]: 100 to 1000 nM
IC50 [3, 6]: < 1000 nM

SMILES: Cc1cc(NC(=O)C(=O)N2C[C@H](C)CC[C@H]2c2ccc(C(F)F)cc2)cnc1N (single isomer, unassigned) [Compound 419]
IC50 [1, 4]: < 100 nM
IC50 [2, 5]: 100 to 1000 nM
IC50 [3, 6]: 1000 to 10000 nM

SMILES: C[C@H]1CC[C@H](c2ccc3c(c2)CCC(=O)N3)N(C(=O)C(=O)Nc2cncc(C(N)=O)c2)C1 (single isomer, unassigned) [Compound 479]
IC50 [1, 4]: < 100 nM
IC50 [2, 5]: > 1000 nM
IC50 [3, 6]: 1000 to 10000 nM

SMILES: C[C@@H]1CC[C@@H](c2ccc3c(c2)CCC(=O)N3)N(C(=O)C(=O)Nc2cncc(C(N)=O)c2)C1 (single isomer, unassigned) [Compound 480]
IC50 [1, 4]: > 1000 nM
IC50 [2, 5]: > 1000 nM
IC50 [3, 6]: > 10000 nM

SMILES: C[C@H]1CC[C@H](c2ccc3[nH]ccc3c2)N(C(=O)C(=O)Nc2cncc(C(N)=O)c2)C1 (single isomer, unassigned) [Compound 481]
IC50 [1, 4]: < 100 nM
IC50 [2, 5]: 100 to 1000 nM
IC50 [3, 6]: < 1000 nM
